Here are results for nine molecules from US20230131899A1, “INHIBITORS OF MICROBIALLY INDUCED AMYLOID” (Axial Therapeutics, Inc., priority 2020, published 2023).

Like-named read-outs stand apart in the source and are kept apart here.

One assay addresses T1, human α-synuclein (Homo sapiens, UniProt P37840).
T1 construct: the full-length gene for untagged human α-synuclein was inserted; made in house; host or cells: E. coli BL21(DE3), plasmid derived from pT7 or pET11a
The experiment in a line: Cell-free Thioflavin T assay of α-synuclein aggregation (αSyn ThT Assay). The class given is biochemical. The conditions noted are these: αSyn 50 μM. The method, then: To assess the effects of compounds on aggregation of α-synuclein, a cell-free assay was performed using purified α-synuclein and Thioflavin T. In the assay, human α-synuclein was expressed in E. coli BL21(DE3) from a plasmid derived from pT7 or pET11a into which the full-length gene for untagged human α-synuclein was inserted. Cells were induced at OD600 0.6 with 0.8 mM IPTG for 4 hours, harvested by centrifugation and suspended in a volume of lysis buffer (10 mM Tris, pH 8.0, 1 mM EDTA, and 1 mM PMSF) equivalent to one-tenth the volume of culture and lysed by boiling for 20 minutes. Cell debris was pelleted by centrifugation, clarified lysate was treated with 10% streptomycin sulfate at 136 μL/mL followed by glacial acetic acid at 228 μL/mL, lysate was centrifuged, supernatant was transferred to a fresh tube and protein was precipitated via addition of an equal volume of saturated (100%) ammonium sulfate and incubated at 4° C. on a rocking shaker for 1 hour. The protein was pelleted via centrifugation and washed with an equal volume of 100 mM ammonium acetate in chilled ethanol, pelleted via centrifugation, washed twice with chilled ethanol, dried overnight, resuspended in 50 mM potassium phosphate buffer pH 7.3 or 10 mM Tris pH 7.4, and passed through a 50 kDa cut-off column. Immediately prior to use, the purified α-synuclein was filtered with a 0.2 μm nylon filter. The assay was conducted in 96-well black microplates with a single 1-2 mm glass bead in each well, 20-40 μM ThioflavinT, 1% DMSO, α-synuclein at 50 μM and compounds at 20-100 μM. Plates were sealed with sealing tape (ThermoFisher 232701), incubated at 37° C. in a Tecan Nano F200 plate reader with excitation at 438 nm using a 439 nm filter with a bandwidth of 8 nm, and emission at 495 nm with a 490 nm filter with a bandwidth of 10 nm. During the assay, plates were shaken continuously or were shaken for 999 seconds every 18 minutes. Readings were performed hourly for up to 73 hours. The effect of compounds on α-synuclein aggregation in the assay was determined with data at 36, 47, 48 or 72 hours or from the final timepoint of the assay, prior to or roughly near the time when ThT fluorescence plateaued in the vehicle control wells. The vehicle controls contained all components of the assay except compounds and represented the level of α-synuclein aggregation in the absence of an inhibitor or accelerator. Fluorescence values for each compound with α-synuclein were first adjusted by subtracting the average fluorescence of the compound in the absence of α-synuclein. These adjusted values were normalized by dividing them by the average fluorescence at the same timepoint in the vehicle control wells, and the average normalized fluorescence with the compound was expressed as a percentage of the average fluorescence observed in untreated controls. Percent inhibition of α-synuclein aggregation by a compound was determined by subtracting the percent average fluorescence with the compound relative to the average vehicle control from 100%. A higher positive percent inhibition reflects greater inhibition of α-synuclein aggregation, while a negative percent inhibition reflects potentiation of α-synuclein aggregation.
Alternate concentrations of Thioflavin T may be used in the assay and may affect the fluorescent signal and sensitivity of the assay. Alternate concentrations of α-synuclein may be used and such alterations may affect aggregation kinetics of α-synuclein in the assay. Alternate concentrations of compounds may be tested in the assay, and dose-responses may be evaluated. Additional reagents may be added to the assay which may affect aggregation kinetics of α-synuclein depending on their concentration, including detergents such as sodium dodecyl sulfate, sodium chloride, dithiotreitol, or bovine serum albumin. Shaking may be included at alternate intervals in the assay and may affect α-synuclein aggregation kinetics. […]

The target of another assay is T2, E. coli CsgA (Escherichia coli, UniProt P28307).
T2 construct: made in house; host or cells: E. coli NEB 3016 slyD::kan, pET11d
The experiment in a line: In vitro ThioflavinT assay of CsgA aggregation (CsgA ThT Assay). It counts as biochemical. The following applies: for remaining activity at 100 µM: compound 100 μM. The method, boiled down:
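Purified C-terminal His-tagged CsgA, monomerised by desalting and 30-kDa filtration, at 2-20 μM with 20-40 μM ThT in 50 mM potassium phosphate pH 7.3, 1% DMSO, compounds 3.125-200 uM; room temperature, fluorescence (ex 438/em 495 nm) read every 15 min. Background-subtracted signal expressed as percent inhibition versus vehicle at 6-6.5 or 8-9 h, or as percent control AUC.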

[1] abbreviates: mean % inhibition of αSyn aggregation relative to DMSO control, compounds at 100 μM, read-out: αSyn ThT Assay % Inhibition.
[2] abbreviates: compounds at 100 μM, class symbol.
[3] abbreviates: read-out: CsgA ThT Assay (10 μM CsgA) % Control AUC at 1005 minutes, 25 μM (activity range), CsgA 10 μM, black plates, compound 25 μM, 1005 minutes, class symbol.
[4] abbreviates: read-out: CsgA ThT Assay (10 μM CsgA) % Control AUC at 1005 minutes, 25 μM, mean AUC as % of DMSO control, CsgA 10 μM, black plates, compound 25 μM, 1005 minutes.
Where [5] appears, read: read-out: CsgA ThT Assay (10 μM CsgA) % Control AUC at 1005 minutes, 100 μM (activity range), CsgA 10 μM, black plates, 1005 minutes, class symbol.
Where [6] appears, read: read-out: CsgA ThT Assay (10 μM CsgA) % Control AUC at 1005 minutes, 100 μM, mean AUC as % of DMSO control, CsgA 10 μM, black plates, 1005 minutes.
The mark [7] stands for this setting: compounds at 100 μM, class symbol, read-out: αSyn ThT Assay % Inhibition (activity range).

T2 sequence (P28307 23-151): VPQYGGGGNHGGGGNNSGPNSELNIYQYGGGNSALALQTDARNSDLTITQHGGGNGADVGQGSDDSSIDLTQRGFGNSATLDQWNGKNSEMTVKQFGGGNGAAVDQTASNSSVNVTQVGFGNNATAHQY

By inhibition is commonly meant the relative decrease from the control value, in per cent. With `CN1CC(C(=O)O)n2c(c(-c3cccc(C(F)(F)F)c3)c(Cc3cccc4ccccc34)cc2=O)S1(=O)=O` (single isomer, unassigned) [Compound 008a, 2-methyl-8-(naphthalen-1-ylmethyl)-6-oxo-9-(3-(trifluoromethyl)phenyl)-3,4-dihydro-2H,6H-pyrido[1,2-e][1,2,5]thiadiazine-4-carboxylic acid 1,1-dioxide], the inhibition at 100 µM at human α-synuclein (setting [1]) amounted to 16%. At human α-synuclein (setting [2]), the “αSyn ThT Assay % Inhibition (activity range)” value is on record as “(+) ((+) represents 11 to 30)”. Besides, the results for the remaining activity at 25 µM on E. coli CsgA (setting [3]) and on E. coli CsgA (setting [4]) were above 60% and 71%, respectively. Further, the remaining activity at 100 µM was 31 to 60% on E. coli CsgA (setting [5]) and 38% on E. coli CsgA (setting [6]).

Turning to `CN1CC(C(=O)O)n2c(c(-c3cccc(C(F)(F)F)c3)c(Cc3cccc4ccccc34)cc2=O)S1(=O)=O` (single isomer, unassigned) [Compound 008b, 2-methyl-8-(naphthalen-1-ylmethyl)-6-oxo-9-(3-(trifluoromethyl)phenyl)-3,4-dihydro-2H,6H-pyrido[1,2-e][1,2,5]thiadiazine-4-carboxylic acid 1,1-dioxide], the “αSyn ThT Assay % Inhibition” value at human α-synuclein (mean % inhibition of αSyn aggregation relative to DMSO control, compounds at 100 μM) amounted to 10%. On human α-synuclein (setting [2]), the “αSyn ThT Assay % Inhibition (activity range)” value is on record as “(−) ((−) represents −10 to 10)”.

On to `O=C(O)C1CS(=O)(=O)c2c(-c3cccc(C(F)(F)F)c3)c(Cc3cccc4ccccc34)cc(=S)n21` (single isomer, unassigned) [Compound 014a, 7-(naphthalen-1-ylmethyl)-5-thioxo-8-(3-(trifluoromethyl)phenyl)-2,3-dihydro-5H-thiazolo[3,2-a]pyridine-3-carboxylic acid 1,1-dioxide], for which the results for the inhibition at 100 µM on human α-synuclein (setting [1]) and on human α-synuclein (setting [7]) were 68% and above 60%, respectively. Further, the “CsgA ThT Assay (10 μM CsgA) % Control AUC at 1005 minutes, 25 μM (activity range)” value on E. coli CsgA (CsgA 10 μM, black plates, compound 25 μM, 1005 minutes, class symbol) is given as “(++) (% control AUC of 31 to 60%)”. On E. coli CsgA (mean AUC as % of DMSO control, CsgA 10 μM, black plates, compound 25 μM, 1005 minutes), the “CsgA ThT Assay (10 μM CsgA) % Control AUC at 1005 minutes, 25 μM” value was found to be 37%. Moreover, the results for the remaining activity at 100 µM at E. coli CsgA (setting [5]) and at E. coli CsgA (setting [6]) were 11 to 31% and 29%, respectively.

On to `O=C(O)C1CNS(=O)(=O)c2c(-c3cccc(C(F)(F)F)c3)c(Cc3cccc4ccccc34)c(NC3CCCC3)c(=O)n21` (centres unmarked) [Compound 005, 7-(cyclopentylamino)-8-(naphthalen-1-ylmethyl)-6-oxo-9-(3-(trifluoromethyl)phenyl)-3,4-dihydro-2H,6H-pyrido[1,2-e][1,2,5]thiadiazine-4-carboxylic acid 1,1-dioxide], for which the inhibition at 100 µM on human α-synuclein (class symbol, compounds 100 μM, read-out: αSyn ThT Assay % inhibition, activity range) is 31 to 60%; at human α-synuclein (mean percent inhibition relative to DMSO control, compounds 100 μM, read-out: αSyn ThT Assay % inhibition), 48%. Moreover, the remaining activity at 25 µM on E. coli CsgA (read-out: CsgA ThT Assay (2 μM CsgA) % Control Bmax 25 μM, activity range, class symbol, CsgA 2 μM, white plates, compound 25 μM) is above 60%; at E. coli CsgA (read-out: CsgA ThT Assay (2 μM CsgA) % Control Bmax 25 μM, mean Bmax as percentage of DMSO control, CsgA 2 μM, white plates, compound 25 μM) it was 66%. Moreover, the remaining activity at 100 µM was 11 to 31% at E. coli CsgA (read-out: CsgA ThT Assay (2 μM CsgA) % Control Bmax 100 μM, activity range, class symbol, CsgA 2 μM, white plates) and 20% on E. coli CsgA (read-out: CsgA ThT Assay (2 μM CsgA) % Control Bmax 100 μM, mean Bmax as percentage of DMSO control, CsgA 2 μM, white plates).

Turning to `O=C(O)c1csc2c(-c3cccc(C(F)(F)F)c3)c(Cc3cccc4ccccc34)cc(=O)n12` [Compound 019, 7-(naphthalen-1-ylmethyl)-5-oxo-8-(3-(trifluoromethyl)phenyl)-5H-thiazolo[3,2-a]pyridine-3-carboxylic acid], the inhibition at 100 µM was 41% on human α-synuclein (setting [1]) and 31 to 60% on human α-synuclein (setting [7]). Besides, the remaining activity at 25 µM at E. coli CsgA (setting [3]) was above 60%; on E. coli CsgA (setting [4]), 69%. Moreover, the figures for the remaining activity at 100 µM at E. coli CsgA (setting [5]) and on E. coli CsgA (setting [6]) were above 60% and 104%, respectively.

Regarding `O=C(O)CCCN1CC(C(=O)O)n2c(c(-c3cccc(C(F)(F)F)c3)c(Cc3cccc4ccccc34)cc2=O)S1(=O)=O` (centres unmarked) [Compound 029, 2-(3-carboxypropyl)-8-(naphthalen-1-ylmethyl)-6-oxo-9-(3-(trifluoromethyl)phenyl)-3,4-dihydro-2H,6H-pyrido[1,2-e][1,2,5]thiadiazine-4-carboxylic acid 1,1-dioxide], the inhibition at 100 µM at human α-synuclein (setting [1]) is -2%; at human α-synuclein (setting [7]), -10 to 10%. The remaining activity at 25 µM at E. coli CsgA (setting [3]) was above 60%; at E. coli CsgA (setting [4]), 71%. The remaining activity at 100 µM was 31 to 60% at E. coli CsgA (setting [5]) and 48% on E. coli CsgA (setting [6]).

On to `CN1CC(C(=O)O)n2c(c(-c3cccc(C(F)(F)F)c3)c(Cc3ccc(N)c4ccccc34)cc2=O)S1(=O)=O` (centres unmarked) [Compound 040], for which the inhibition at 100 µM on human α-synuclein (setting [1]) was 61%; at human α-synuclein (setting [7]), above 60%. Further, the values for the remaining activity at 25 µM at E. coli CsgA (setting [3]) and at E. coli CsgA (setting [4]) were above 60% and 78%, respectively. Moreover, the remaining activity at 100 µM at E. coli CsgA (setting [5]) is below 10%; at E. coli CsgA (setting [6]) it was 8%.

Consider `CC(=O)Nc1ccc(Cc2cc(=O)n3c(c2-c2cccc(C(F)(F)F)c2)S(=O)(=O)N(C)CC3C(=O)O)c2ccccc12` (centres unmarked) [Compound 048], for which the inhibition at 100 µM on human α-synuclein (setting [1]) was 18%; at human α-synuclein (setting [7]) it was 11 to 30%. For the same molecule, the remaining activity at 25 µM on E. coli CsgA (setting [3]) is above 60%; at E. coli CsgA (setting [4]), 90%. Besides, the values for the remaining activity at 100 µM at E. coli CsgA (setting [5]) and on E. coli CsgA (setting [6]) were above 60% and 61%, respectively.

Regarding `Nc1c(Cc2cccc3ccccc23)c(-c2cccc(C(F)(F)F)c2)c2scc(C(=O)O)n2c1=O` [Compound 050, 6-amino-7-(naphthalen-1-ylmethyl)-5-oxo-8-(3-(trifluoromethyl)phenyl)-5H-thiazolo[3,2-a]pyridine-3-carboxylic acid], the inhibition at 100 µM at human α-synuclein (setting [1]) was 49%; on human α-synuclein (setting [7]), 31 to 60%. The remaining activity at 25 µM at E. coli CsgA (setting [3]) was 31 to 60%; on E. coli CsgA (setting [4]) it was 36%. Further, the remaining activity at 100 µM was 11 to 31% on E. coli CsgA (setting [5]) and 22% on E. coli CsgA (setting [6]).
